Data as given in patent EP1650209A1, “Griseusin derivatives and their use as antitumor agents” (Oncotest GmbH, priority 2004, dated 2006).
Values after ≈ are worked out from the molar mass of the structure shown.

How the values were obtained:
Assay in all cases: Proliferation inhibition of cancer cells (propidium iodide fluorescence)
Format in all cases: cell-based, human
[1] = system: GXF 251 L; conditions: Homo sapiens, 96 h, GXF 251L cell line, 4 days, read-out: IC50 value
Experimental: (§1) Using various human cancer cells in vitro, the concentrations of the test compounds (A, B, C, D, E, F), which inhibit the proliferation of cancer cells by 50% (IC50) and 70% (IC70) were determined. Specifically, each cell line of bladder cancer (BXF 1218L and T-24), glioblastoma (CNXF 498NL), colic cancer (HCT-116 and HT-29), gastric cancer (GXF 251 L), head and neck cancer (HNXF 536L), non small cell lung cancer (LXF 1121L, LXF 289L, LXF 526L, LXF 529L, LXF 629L and H-460), mammary cancer (MAXF 401NL, MCF-7, MDA-231 and MDA-468), melanoma (MEXF 276L, MEXF 394NL, MEXF 462NL, MEXF 514L and MEXF 520L), ovary cancer (OVXF 1619L, OVXF 899L and OVCAR-3), pancreatic cancer (PAXF 1657L and PANC-1), prostate cancer (22Rv1, DU-145, LNCaP and PC3M), pleuramesothelioma (PXF 1752L), renal cancer (RXF 1781 L, RXF 393NL, RXF 486L and RXF 944L), and uterine cancer (UXF 1138L) is added to a 96-well microtiter plate at a density of 3.6-11.2x10^3 cells per well in RPMI-1640 medium containing 10% fetal calf serum and 0.1% gentamicin and incubated for 24 hours. After 24 hours RPMI-1640 medium containing 10% fetal calf serum and 0.1% gentamicin, together with a test compound, is added thereto. Then, this plate is incubated at 37°C for 4 days in a humidified atmosphere of air containing 5% CO2. Thereafter, the cell culture medium with or without drug was replaced by 200 µl of an aqueous PI solution (7 µg/ml propidium iodide). Applying a freeze thaw cycle to permeabilize intact cell walls, staining of DNA was achieved, and the fluorescence of each well was measured using the Cy-tofluor 4000 microplate reader (excitation 530 nm, emission 620 nm), giving a direct relationship to the total cell number. Proliferation inhibition is expressed as test versus untreated control (T/C-value [%]). IC50 and IC70 values were determined by plotting compound concentration versus cell viability.

[2] = system: LXFL 529L; conditions: Homo sapiens, 96 h, LXFL 529L cell line, 4 days, read-out: IC50 value
Experimental: as §1

[3] = system: MAXF 401NL; conditions: Homo sapiens, 96 h, MAXF 401NL cell line, 4 days, read-out: IC50 value
Experimental: as §1

[4] = system: MEXF 462NL; conditions: Homo sapiens, 96 h, MEXF 462NL cell line, 4 days, read-out: IC50 value
Experimental: as §1

[5] = system: RXF 486L; conditions: Homo sapiens, 96 h, RXF 486L cell line, 4 days, read-out: IC50 value
Experimental: as §1

[6] = system: UXF 1138L; conditions: Homo sapiens, 96 h, UXF 1138L cell line, 4 days, read-out: IC50 value
Experimental: as §1

IC50 [1] [µg/mL] | IC50 [2] [µg/mL] | IC50 [3] [µg/mL] | IC50 [4] [µg/mL] | IC50 [5] [µg/mL] | IC50 [6] [µg/mL] | SMILES
0.037 (≈ 0.0856 µM) | 0.158 (≈ 0.365 µM) | 0.034 (≈ 0.0786 µM) | 0.029 (≈ 0.0671 µM) | 0.053 (≈ 0.123 µM) | 0.302 (≈ 0.698 µM) | COC(=O)CC1OC2(OC(C)CC(=O)C2O)C2=C(C(=O)c3cccc(O)c3C2=O)C1O (stereo not drawn) [Compound F, 4'-dehydro-4-hydroxy-deacetylgriseusin B methylester]
3.06 (≈ 7.62 µM) | 8.95 (≈ 22.2 µM) | 0.345 (≈ 0.857 µM) | 1.13 (≈ 2.8 µM) | 1.11 (≈ 2.77 µM) | 8.08 (≈ 20.1 µM) | CC1CC(O)C(O)C2(O1)OC1CC(=O)OC1C1=C2C(=O)c2c(O)cccc2C1=O (stereo not drawn) [Compound A, deacetylgriseusin A, reference compound]
0.393 (≈ 0.905 µM) | 3.87 (≈ 8.9 µM) | 0.046 (≈ 0.106 µM) | 0.094 (≈ 0.216 µM) | 0.288 (≈ 0.663 µM) | 0.377 (≈ 0.868 µM) | COC(=O)CC1OC2(OC(C)CC(O)C2O)C2=C(C(=O)c3cccc(O)c3C2=O)C1O (stereo not drawn) [Compound E, 4-hydroxy-deacetylgriseusin B methylester]
